Experimental data taken from US11440880B2, “Thalidomide analogs and methods of use” (The USA, as represented by the Secretary, Department of …, priority 2015, dated 2022).

Assays:
[1] = system: mpo:GFP zebrafish embryos (neutrophil migration to the wound site); experiment: mpo:GFP zebrafish fin-clip neutrophil migration (inflammation) assay; format: in vivo; design: mpo:GFP inflammation n (survived/tested): concentration or dose not given beside the values; settings: for minimal effective concentration: Danio rerio, Neutrophil, lowest concentration producing an effect, compounds not producing an effect shown at the highest evaluated concentration; for mpo:GFP inflammation n (survived/tested): embryos survived/tested at the concentration given
Outline: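 Tg(mpo::EGFP) larvae tail-fin clipped (dorsal third removed) at 72 hpf, then immersed in compound or vehicle. Neutrophils migrating to the wound site counted from images 24 h later; at least 50% reduction scored as anti-inflammatory. Viability and morphology also assessed.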

[2] = system: RAW 264.7 cells; experiment: Cell viability (CellTiter 96 AQueous One) of LPS-challenged RAW 264.7 cells; format: cell-based, mouse; design: key: NS=not significant; a “+” sign=anti-inflammatory or increased cell numbers; a “−” sign=cell toxicity or pro-inflammatory
Outline: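 RAW 264.7 murine macrophages pretreated 1 h with compound or DMSO vehicle, then challenged with LPS (serotype 055:B5) at 30 or 60 ng/mL final for 24 h. After media replacement, viability measured by tetrazolium (MTS) conversion, absorbance at 490 nm, reported as O.D.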

| Structure (SMILES) | minimal effective concentration [1] | mpo:GFP inflammation n (survived/tested) [1] | Viability ([2]; 1 μM) | Viability ([2]; 10 μM) | Viability ([2]; 30 μM) | Viability ([2]; 60 μM) | Viability ([2]; 100 μM) | Viability ([2]; 3 μM) |
| --- | --- | --- | --- | --- | --- | --- | --- | --- |
| O=C1NC(=S)CCC1N1C(=O)c2cccc([N+](=O)[O-])c2C1=O (stereo not shown) [Compound 7, 2-(2-Oxo-6-thioxo-3-piperidinyl)-4-nitro-1H-isoindole-1,3(2H)-dione] | 10 µg/mL | 29/29 | NS | NS | NS | NS | + |  |
| Nc1cccc2c1CN(C13CC4CC(CC(C4)C1)C3)C2=O [Compound 77, 2,3-Dihydro-4-amino-2-(tricyclo[3.3.1.1^3,7]dec-1-yl)-1H-isoindol-1-one] | 200 µg/mL | 5/21 | NS | NS | NS |  |  |  |
| O=C1c2ccccc2CN1C12CC3CC(CC(O)(C3)C1)C2 [Compound 86, 2,3-Dihydro-2-(tricyclo[3.3.1.1^3,7]dec-1-hydroxy-3-yl)-1H-isoindol-1-one] | 100 µg/mL | 14/19 | NS | NS | NS |  |  |  |
| CC(N1Cc2c(N)cccc2C1=O)C12CC3CC(CC(C3)C1)C2 (stereo not shown) [Compound 81] | 50 µg/mL | 9/21 | NS | NS | NS |  |  |  |
| O=C1CCC(N2C(=O)c3cccc([N+](=O)[O-])c3C2=O)C(=O)N1 (stereo not shown) [Compound 5] | 10 µg/mL | 28/28 | NS | NS | NS | NS | NS |  |
| Nc1cccc2c1CN(C1CCC(=O)NC1=O)C2=S (stereo not shown) [Compound 29] | 5 µg/mL | 2/10 |  | − | − |  |  | − |
